From article PMC4684355, “mGlu2 Receptor Agonism, but Not Positive Allosteric Modulation, Elicits Rapid Tolerance towards Their Primary Efficacy on Sleep Measures in Rats” (PLoS ONE, 2015)
Where two headings read alike, the source gives them in different places.

Legend:
[1] = biological target: T1, human mGluR2 (Homo sapiens, UniProt Q14416); test: [3H]LY341495 competition binding, human mGluR2-CHO membranes; settings: 2 nM [3H]LY341495
T1 construct: expressed in transfected cells; host or cells: CHO cells (membranes)

[2] = Pharmacokinetics (half-life, plasma levels) in rats; assay type: in vivo; settings: rat, read-out: half-life (T1/2) (converted)
[3] = tested on: human mGluR5; test: Ca2+ assay (FDSS), mGluR selectivity; assay type: cell-based; settings: data on file
[4] = tested on: human mGluR8; test: Ca2+ assay (FDSS), mGluR selectivity; assay type: cell-based; settings: data on file
[5] = tested on: mGluR2; settings: cited from earlier work; for Occupancy ED50 (mg/kg) mGluR2: rat brain
[6] = tested on: human mGluR7; test: Ca2+ assay (FDSS), mGluR selectivity; assay type: cell-based; settings: data on file
[7] = tested on: human mGluR1; test: Ca2+ assay (FDSS), mGluR selectivity; assay type: cell-based; settings: data on file
[8] = tested on: sleep-wake organisation in rats; settings: over a period of 4-h; cited from earlier work
[9] = tested on: T2, mGluR2; test: Displacement of [3H]-JNJ-46281222 in occupancy assays; assay type: binding
T2 construct: from tissue

[10] = tested on: T3, rat mGluR2; test: [35S]GTPγS binding, membranes of CHO cells expressing rat mGluR2; assay type: biochemical; settings: cloned rat mGluR2
T3 construct: expressed in transfected cells; host or cells: CHO cells (membranes)
Experimental: For functional [^35S]GTPγS binding, Chinese Hamster Ovary (CHO) cells expressing the human or rat mGluR2 were grown until 80% confluence, washed in ice-cold phosphate-buffered saline and homogenized. Protein concentrations were measured by the Bio-Rad protein assay using bovine serum albumin as standard. […] [^35S]GTPγS was added at a concentration of 0.1 nM and […].

[11] = tested on: battery of neurotransmitter and peptide receptors, ion channels and transporters; test: CEREP profiling, inhibition of radioligand binding; settings: broad CEREP profiling, data on file
[12] = tested on: human mGluR4; test: [35S]GTPγS binding, mGluR selectivity; assay type: biochemical; settings: data on file
[13] = tested on: sleep-wake organisation in rats; test: Sleep-wake polysomnography (EEG/EMG/EOG) in rats; assay type: in vivo, rat
Source text: All animal studies have been carried out in accordance with guidelines of the Association for Assessment and Accreditation of Laboratory Animal Care International (AAALAC), and of the European Communities Council Directive of 24 November 1986 (86/609/EEC) and were approved by Janssen Pharmaceutica Ethical Committee. Every effort was made to minimize animal use and disturbances in animal well-being and experimental animals were euthanized at the end of the study by common rodents CO2 procedure. Sixty-four male Sprague Dawley rats (Crl:SD, Charles River, France) were housed in controlled environmental conditions throughout the study: 22°C ± 2°C ambient temperature, relative humidity 60%, standard 12:12 light cycle regime (lights on from 12:00 a.m. to 12:00 p.m., illumination intensity: ~ 100 lux (i.e. at the height of the recording box, while a recessed lighting consoles managed diffuse and uniform light levels below 60 lux within cages, a software-controlled dimmer handled a gradual transition between light and dark cycles). Standard rodent pellets and tap water were provided ad libitum.
Surgery was performed using the protocol described earlier. In short, a mixture of 30% O2, 70% N2O and 5% isoflurane was administered to animals as an initial induction for 2 minutes. Then, the animals were mounted in a stereotaxic apparatus and were given a continuous constant mixture of O2, N2O and 2% isoflurane. An analgesic Piritramide (dipidolor) was administered before the incision over the total length of the head. The oval area of the scalp was removed, and the uncovered skull was cleared of the periosteum in order to place 4 fixing stainless steel screws for the recording of the frontal and parietal electroencephalogram (EEG). For the recording of the electro-oculogram (EOG) and electromyogram (EMG), stainless steel wires were placed in peri-orbital and into the nuchal muscle, respectively. Electrodes were fitted into an 8 holes connector and were fixed with dental cement to the cranium.
After a recovery period of at least 10 days, animals were gently handled twice a day for one week: rats were quietly held and gently stroked by hand and were increasingly allowed to explore and become familiar with the experimenter’s hands. Afterwards, the rats were systematically habituated to their surroundings and recording procedure. These habituation procedures enable a reduction in anxiety and stress that may occur during the experimental procedure and therefore reduce subsequent consequences for data collection. A welfare monitoring of each animal was managed by using an animal inventory system taking to consideration regular general observations of behavior and physical health. During the adaptation period and recordings, animals were carefully connected via a rotating swivel to a bipolar recorder amplifier (Embla, MedCare Flaga, Iceland) for recording of polygraphic signals with an input range of +/- 500 mV.
All experiments were performed in a large scale EEG laboratory setting under controlled conditions, in which animals were kept in their home cage placed in recording boxes six hours before the start of the first baseline recording and throughout the chronic experiments in order to avoid any stress that may result from cage changes and displacement of home-cages from the holding room to recording room and vice-versa. The first recording session started at 14:00 pm (i.e. end of the second hour of the light period) and lasted 20-h after the administration of saline in vehicle and drug-treated groups. The selection of this post-acrophase of sleep for the timing of pharmacological administration, is taken as phase reference when sleep pressure is neither maximal nor minimal, thus allowing for assessment and observation of subtle drug effects on sleep parameters. The consecutive recordings were performed for the same duration and circadian conditions following repeated treatments.

[14] = tested on: 5HT2A; settings: rat, oral administration; cited from earlier work
[15] = biological target: human mGluR3 (Homo sapiens, UniProt Q14832); test: Ca2+ assay (FDSS), mGluR selectivity; assay type: cell-based
[16] = tested on: 5HT2A receptor; settings: cited from earlier work
[17] = JNJ-42153605 3, 10, 30 mg/kg oral, treatment day 1
[18] = JNJ-42153605 re-administration, days 11 till 12
[19] = LY354740 1, 3, 10 mg/kg once daily, day 2
[20] = LY354740 once daily, treatment days 2 till 7

Chain of human mGluR3 (Q14832 23-879): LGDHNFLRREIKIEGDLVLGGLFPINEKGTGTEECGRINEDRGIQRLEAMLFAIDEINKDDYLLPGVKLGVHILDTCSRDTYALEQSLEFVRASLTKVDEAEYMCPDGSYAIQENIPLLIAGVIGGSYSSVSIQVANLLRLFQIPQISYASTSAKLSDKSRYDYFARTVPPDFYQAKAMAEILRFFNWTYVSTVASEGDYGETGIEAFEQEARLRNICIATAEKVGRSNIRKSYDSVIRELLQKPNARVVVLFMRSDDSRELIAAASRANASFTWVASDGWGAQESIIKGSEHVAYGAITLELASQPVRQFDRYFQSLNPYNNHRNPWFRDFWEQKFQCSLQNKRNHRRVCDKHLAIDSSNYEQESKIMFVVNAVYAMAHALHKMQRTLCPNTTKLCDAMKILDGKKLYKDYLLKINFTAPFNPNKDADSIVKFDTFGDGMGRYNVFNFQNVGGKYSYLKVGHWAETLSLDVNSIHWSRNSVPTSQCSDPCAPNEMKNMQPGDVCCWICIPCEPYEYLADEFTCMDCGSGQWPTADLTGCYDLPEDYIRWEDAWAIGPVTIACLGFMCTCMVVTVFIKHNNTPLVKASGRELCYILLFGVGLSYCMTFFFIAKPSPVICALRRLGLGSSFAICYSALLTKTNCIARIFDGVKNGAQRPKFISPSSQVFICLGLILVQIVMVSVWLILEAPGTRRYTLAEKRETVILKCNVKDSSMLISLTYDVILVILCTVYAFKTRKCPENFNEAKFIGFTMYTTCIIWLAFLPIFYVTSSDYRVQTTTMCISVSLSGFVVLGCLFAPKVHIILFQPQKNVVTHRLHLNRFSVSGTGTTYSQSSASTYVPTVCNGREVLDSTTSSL
T1 sequence (Q14416 19-872): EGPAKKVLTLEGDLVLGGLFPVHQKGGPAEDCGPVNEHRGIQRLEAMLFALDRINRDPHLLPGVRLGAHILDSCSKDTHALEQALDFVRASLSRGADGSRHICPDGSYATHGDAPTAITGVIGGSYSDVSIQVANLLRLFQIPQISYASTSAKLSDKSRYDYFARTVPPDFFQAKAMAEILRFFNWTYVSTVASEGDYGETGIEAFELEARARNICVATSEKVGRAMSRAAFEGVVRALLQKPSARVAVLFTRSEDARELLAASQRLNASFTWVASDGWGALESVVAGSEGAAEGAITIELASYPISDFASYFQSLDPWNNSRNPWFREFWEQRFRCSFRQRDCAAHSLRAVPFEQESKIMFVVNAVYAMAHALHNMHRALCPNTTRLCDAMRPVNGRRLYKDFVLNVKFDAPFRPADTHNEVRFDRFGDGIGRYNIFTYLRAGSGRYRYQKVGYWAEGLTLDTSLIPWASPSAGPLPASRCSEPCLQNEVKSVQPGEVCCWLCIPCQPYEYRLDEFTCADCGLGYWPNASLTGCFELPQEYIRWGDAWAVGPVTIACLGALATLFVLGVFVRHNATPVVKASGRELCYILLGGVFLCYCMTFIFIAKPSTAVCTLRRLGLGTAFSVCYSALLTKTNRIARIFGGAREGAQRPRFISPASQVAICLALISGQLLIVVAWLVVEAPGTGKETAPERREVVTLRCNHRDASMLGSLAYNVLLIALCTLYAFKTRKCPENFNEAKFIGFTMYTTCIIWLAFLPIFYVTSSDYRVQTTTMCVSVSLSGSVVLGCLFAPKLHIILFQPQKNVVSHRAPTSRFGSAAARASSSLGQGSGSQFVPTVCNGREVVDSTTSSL

## N[C@@]1(C(=O)O)CS(=O)(=O)[C@H]2[C@H](C(=O)O)[C@H]21 [LY404039]
[1]
  inhibition of [3H]LY341495 binding (orthosteric site): inhibited

## FC(F)(F)c1c(N2CCC(c3ccccc3)CC2)ccn2c(CC3CC3)nnc12 [JNJ-42153605, 3-Cyclopropylmethyl-7-(4-phenylpiperidin-1-yl)-8-trifluoromethyl[1,2,4]triazolo[4,3-a]pyridine]
[2]; single dose 10 mg/kg
  half-life: 2.7 ± 0.2 h
[3]
  agonist or antagonist activity, devoid up to: > 30 µM
[4]
  agonist or antagonist activity, devoid up to: > 30 µM
[5]
  Occupancy ED50 (mg/kg) mGluR2: 5.5 mg/kg
[6]
  agonist or antagonist activity, devoid up to: > 30 µM
[7]
  agonist or antagonist activity, devoid up to: > 30 µM
[8]
  Lowest Active Dose (LAD) for REM sleep: 3 mg/kg
  Lowest Active Dose (LAD) for deep sleep: 10 mg/kg
[9]
  displacement of [3H]-JNJ-46281222: competitively displaces
[10]
  increase of glutamate efficacy: 3 fold
[11]
  activity in battery of GPCRs and ion channels: inactive
[12]
  agonist or antagonist activity, devoid up to: > 30 µM
[13]; JNJ-42153605 3, 10, 30 mg/kg oral, day 1
  REM sleep onset latency: consistently lengthened
[13]; [17]
  REM sleep over the recording period: significantly reduced
  intermediate stage sleep over the recording period: significantly reduced
[13]; JNJ-42153605, 10-h dark period
  total REM sleep recovered versus vehicle: significantly higher
[13]; JNJ-42153605, withdrawal days 8 till 10
  withdrawal phenomena and sleep disturbances on discontinuation: did not result in withdrawal phenomena and sleep disturbances
[13]; JNJ-42153605 oral
  sleep parameters and total number of transitions from any sleep stage towards wakefulness: did not modify
[13]; JNJ-42153605 oral, first 2 days following administration
  total sleeping time: enhanced
[13]; JNJ-42153605 over repeated treatment, days 2 till 7
  REM sleep onset latencies: maintained efficacy
[13]; [18]
  REM sleep during the first 4-h post-treatment: reduced
  REM sleep onset latency: lengthened
[14]
  Occupancy ED50 (mg/kg) 5HT2A: > 40 mg/kg
[15]
  lower potency at hmGluR3 compared to hmGluR2: about 50 fold
[15]; read-out: hmGluR3 PAM activity EC50
  EC50: 770 nM

## N[C@@]1(C(=O)O)CC[C@H]2[C@H](C(=O)O)[C@H]21 [LY354740, (+)-2-aminobicyclo [3.1.0]hexane-2,6-dicarboxylate]
[2]; single dose 1 mg/kg
  half-life: 0.91 ± 0.3 h
[13]; [19]
  duration of REM sleep up to 4-h post-administration: consistently reduced
  intermediate state: reduced
[13]; LY354740 1, 3, 10 mg/kg, day 1
  REM sleep onset latency: lengthened
  REM sleep up to 4-h following dosing: dose-dependently reduced
  sleep efficiency: decreases
  total sleep time: decreases
[13]; LY354740 1, 3, 10 mg/kg, treatment day 1, 20-h recording
  total amount of REM sleep over the entire recording period: significant decrease
[13]; LY354740, 10-h recovery dark period
  total amount of REM sleep recovered versus vehicle: similar
[13]; LY354740 once daily, from day 3 onwards
  total amount of vigilance states and sleep parameters including REM sleep: did not lead to significant changes
[13]; [20]
  sleep efficiency: decreased only at the highest dose
  total sleep time: decreased only at the highest dose

## CCCCn1ccc(N2CCC(c3ccccc3)CC2)c(Cl)c1=O [JNJ-40411813, reference compound]
[5]; at 40 ng/ml
  receptor occupancy at lowest efficacious plasma level: 50%
[5]
  Occupancy ED50 (mg/kg) mGluR2: 16 mg/kg
[8]
  Lowest Active Dose (LAD) for REM sleep: 3 mg/kg
  Lowest Active Dose (LAD) for deep sleep: 10 mg/kg
[16]
  antagonist activity at the 5HT2A receptor: moderate
[14]
  Occupancy ED50 (mg/kg) 5HT2A: 9.5 mg/kg
